# Results taken from patent publication US20150182586A1, “DAIRY FARM TEAT DIP COMPOSITIONS AND METHODS” (Advanced BioCatalytics Corporation, priority 2013, published 2015).
# Test system: mastitis
# Assay: Teat dip field test, Dairy 3 (spray, raw milk dairy, 6 week test period)
# Format: in vivo
# Details: Dairy 3, pre and post milking; chlorine dioxide on cows without previous mastitis (Pens 0, 1, 3, 5), Example 1 on cows with previous mastitis (Pen 7)
# Source text: Dairy 3 produces raw milk and uses a spray method for applying teat dips. A key factor to note is that Example 1 was used on cows that previously had mastitis. The results of Table 5 compare using chlorine dioxide on cows that had not had mastitis, to using Example 1 on cows that were more susceptible due to previous bouts with mastitis. Once a cow developed mastitis in Dairy 3, it is not used in the production of raw milk. […] Pen No's. 0, 1, 3 and 5 used chlorine dioxide for both pre and post milking. Pen No. 7 used Example 1 for the 6 week test period. In all pens, the cows were retained in pens with saw dust in between milking cycles to reduce the chance of spreading infectious disease.
# The number of cows that were […] using the composition of Example 1, for both pre and post milking, during the 6 week test period was 5.3% as shown in Table 5. Table 6 defines the number of cows in each respective pen of Table 5.
structure (smiles),measurement,value
[O][Cl+][O-] [chlorine dioxide],cows that developed mastitis during the 6 week test period,5.7%
